Laboratory results as given in patent US6773733B2, “Structured particulate systems” (Loders Croklaan USA LLC, priority 2001, dated 2004).

Legend:
Format in all cases: physicochemical
Loose bulk density = assay: Loose bulk density
Text: Loose bulk density being measured by measuring the volume of a known mass powder sample, that has passed through a screen into a gradulated cylinder. The procedure is described in USP<616<Bulk Density and Tapped Density.

[1] = Mean weight diameter by screen analysis; conditions: weight fraction at screen multiplied by screen opening, summed for all screen sizes
Procedure: Folic acid is used as the active component It has a mean weight diameter of 246 microns and a loose bulk density of 0.2 g/cc. The mean weight diameters is calculated as follows: weight fraction at screen multiplied by screen opening (microns), summed for all screen sizes.

[2] = Comparative homogeneity test in vegetable oil; conditions: added to 1 kg of vegetable oil, mixed for 5 minutes, continuous visual inspection
Procedure: Comparative homogeneity test of structured particulate Folic Acid with non-structured active particulate component: 1. 10 milligrams of non-structured active particulate component Folic Acid is added to 1 kg of vegetable oil and 40 milligrams of structured particulate Folic Acid (25%) to another 1 kg of vegetable oil. 2. Each sample is mixed for 5 minutes with continuous visual inspection for homogeneity.

Structure (SMILES): Nc1nc2ncc(CNc3ccc(C(=O)N[C@@H](CCC(=O)O)C(=O)O)cc3)nc2c(=O)[nH]1 [Folic acid]
- loose bulk density (Loose bulk density): 0.2 g/cc
- mean weight diameter [1]: 246 microns
- homogeneity / dispersion by visual inspection [2]: clumps together and sticks to the container walls
